Results published in US20230002397A1, “SMALL MOLECULE DEGRADERS OF HELIOS AND METODS OF USE” (DANA-FARBER CANCER INSTITUTE, INC., priority 2019, published 2023).

Target: T1, IKZF2 (Homo sapiens, UniProt Q96SW2+Q9UKS7)
T1 construct: CRISPR/Cas9—mediated insertion of the HiBiT peptide tag (Promega™) to the N-terminus of the IKZF2 gene locus; endogenous in cells; host or cells: MOLT4 cells, with CRISPR/Cas9 knock-in of HiBiT at the endogenous IKZF2 locus
Experiment: HiBit-IKZF2 assay (HiBiT-Helios degradation in MOLT4 cells)
Type: cell-based
Conditions: for Dmax: MOLT-4, extent of degradation from highest to lowest concentration, 10 μM to 0.00026 μM, read-out: Dmax; for DC50: concentration at which 50% of HiBiT-Helios degradation was achieved
Outline: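 MOLT4 cells carried an endogenous N-terminal HiBiT tag on IKZF2, knocked in by CRISPR. Cells were treated in triplicate at 13 concentrations (10 μM–0.00026 μM), and remaining HiBiT-Helios was read by lytic luminescence at set timepoints. Data were normalized to DMSO to give the 50% degradation concentration, with Dmax taken from the luminescence range.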

T1 sequence (Q9UKS7 whole entry): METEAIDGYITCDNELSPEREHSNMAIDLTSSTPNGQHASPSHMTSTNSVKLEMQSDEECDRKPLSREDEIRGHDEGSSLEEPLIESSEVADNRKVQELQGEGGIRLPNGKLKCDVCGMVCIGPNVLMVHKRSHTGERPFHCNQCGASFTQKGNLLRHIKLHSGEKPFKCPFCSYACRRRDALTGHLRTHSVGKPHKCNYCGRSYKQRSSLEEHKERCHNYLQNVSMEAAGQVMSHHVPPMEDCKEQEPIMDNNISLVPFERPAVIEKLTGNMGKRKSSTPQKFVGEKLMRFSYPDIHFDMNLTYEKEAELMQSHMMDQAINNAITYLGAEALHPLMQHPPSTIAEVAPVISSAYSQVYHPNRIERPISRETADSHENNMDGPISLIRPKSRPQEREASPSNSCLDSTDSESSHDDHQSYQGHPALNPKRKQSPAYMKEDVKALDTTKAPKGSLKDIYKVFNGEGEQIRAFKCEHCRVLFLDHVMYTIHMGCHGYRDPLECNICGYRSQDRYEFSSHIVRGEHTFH
T1 sequence (Q96SW2 whole entry): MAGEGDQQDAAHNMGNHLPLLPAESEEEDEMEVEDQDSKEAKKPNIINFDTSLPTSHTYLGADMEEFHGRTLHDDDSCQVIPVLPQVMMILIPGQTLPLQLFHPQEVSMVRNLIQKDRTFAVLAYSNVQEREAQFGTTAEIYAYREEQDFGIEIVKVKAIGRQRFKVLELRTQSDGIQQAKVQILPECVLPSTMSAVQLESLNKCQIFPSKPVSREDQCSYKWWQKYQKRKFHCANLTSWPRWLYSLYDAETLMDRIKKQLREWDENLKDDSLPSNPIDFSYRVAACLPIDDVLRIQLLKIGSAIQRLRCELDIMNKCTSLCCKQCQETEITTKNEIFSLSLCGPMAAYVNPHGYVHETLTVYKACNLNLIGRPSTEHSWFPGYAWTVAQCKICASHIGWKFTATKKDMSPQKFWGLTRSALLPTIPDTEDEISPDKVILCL
T1 sequence (Q16531 whole entry partner): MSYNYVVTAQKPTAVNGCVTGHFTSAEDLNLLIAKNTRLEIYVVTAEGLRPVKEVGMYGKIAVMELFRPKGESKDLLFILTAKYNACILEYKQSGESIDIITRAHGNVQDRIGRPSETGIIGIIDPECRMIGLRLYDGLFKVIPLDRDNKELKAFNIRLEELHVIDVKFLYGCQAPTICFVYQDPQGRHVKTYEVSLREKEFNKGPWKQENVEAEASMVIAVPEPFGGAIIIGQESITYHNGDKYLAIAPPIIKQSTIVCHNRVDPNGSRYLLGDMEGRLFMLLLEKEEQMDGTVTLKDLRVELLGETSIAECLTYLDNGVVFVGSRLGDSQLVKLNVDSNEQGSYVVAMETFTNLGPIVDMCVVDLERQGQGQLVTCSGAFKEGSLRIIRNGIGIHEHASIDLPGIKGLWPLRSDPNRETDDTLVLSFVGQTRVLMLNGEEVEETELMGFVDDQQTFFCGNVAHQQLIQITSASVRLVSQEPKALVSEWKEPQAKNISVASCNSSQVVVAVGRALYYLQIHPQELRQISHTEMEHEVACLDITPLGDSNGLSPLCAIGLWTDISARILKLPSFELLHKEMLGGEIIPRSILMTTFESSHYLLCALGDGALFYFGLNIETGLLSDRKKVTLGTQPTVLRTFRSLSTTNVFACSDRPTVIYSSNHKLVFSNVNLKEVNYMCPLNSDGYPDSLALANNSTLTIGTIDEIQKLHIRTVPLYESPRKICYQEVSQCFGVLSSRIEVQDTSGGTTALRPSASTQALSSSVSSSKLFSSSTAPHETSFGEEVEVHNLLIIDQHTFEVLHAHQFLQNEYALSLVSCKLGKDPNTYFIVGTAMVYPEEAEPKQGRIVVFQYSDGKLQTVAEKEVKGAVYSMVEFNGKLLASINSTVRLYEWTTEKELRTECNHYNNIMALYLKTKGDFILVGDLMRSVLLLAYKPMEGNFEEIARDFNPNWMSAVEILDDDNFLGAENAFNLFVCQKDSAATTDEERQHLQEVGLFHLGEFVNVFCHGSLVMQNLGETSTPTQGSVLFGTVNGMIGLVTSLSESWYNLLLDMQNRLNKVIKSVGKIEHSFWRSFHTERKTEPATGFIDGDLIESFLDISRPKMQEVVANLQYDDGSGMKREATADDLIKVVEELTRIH

Row | SMILES | Dmax [%] | DC50 [nM]
1 | CN(c1ccccc1)S(=O)(=O)c1cccc(CN2CCC(c3ccc4c(c3)CN(C3CCC(=O)NC3=O)C4=O)CC2)c1 (stereo not drawn) [Compound 98] | 50 to 70 | < 10
2 | O=C1CCC(N2Cc3cc(C4(O)CCN(Cc5ccc(-c6ccccc6)cc5)CC4)ccc3C2=O)C(=O)N1 (stereo not drawn) [Compound 206] | > 70 | < 10
3 | O=C1CCC(N2Cc3cc(C4CCN(Cc5ccc6c(c5)C(=O)N(c5ccc(F)cc5)C6)CC4)ccc3C2=O)C(=O)N1 (stereo not drawn) [Compound 180] | 50 to 70 | 10 to 30
4 | O=C1CCC(N2Cc3cc(C4CCN(Cc5ccc6c(c5)C(=O)N(c5cccc(O)c5)C6)CC4)ccc3C2=O)C(=O)N1 (stereo not drawn) [Compound 217] | > 70 | < 10
5 | O=C1CCC(N2Cc3cc(C4CCN(Cc5cccc(N6Cc7ccccc7S6(=O)=O)c5)CC4)ccc3C2=O)C(=O)N1 (stereo not drawn) [Compound 136] | 50 to 70 | < 10
6 | Cc1ccnc(Nc2cccc(CN3CCC(c4ccc5c(c4)CN(C4CCC(=O)NC4=O)C5=O)CC3)c2)n1 (stereo not drawn) [Compound 229] | 50 to 70 | < 10
7 | O=C1CCC(N2Cc3cc(C4CCN(Cc5ccnc(Nc6ccccc6)n5)CC4)ccc3C2=O)C(=O)N1 (stereo not drawn) [Compound 122] | 30 to 50 | 10 to 30
8 | O=C1CCC(N2Cc3cc(C4CCN(Cc5ccnc(Nc6ccccc6)c5F)CC4)ccc3C2=O)C(=O)N1 (stereo not drawn) [Compound 126] | 50 to 70 | 10 to 30
9 | O=C1CCC(N2Cc3cc(C4CCN(Cc5cccc(S(=O)(=O)N6CCOc7ccccc76)c5)CC4)ccc3C2=O)C(=O)N1 (stereo not drawn) [Compound 84] | 50 to 70 | 30 to 150
10 | O=C1CCC(N2Cc3cc(C4CCN(Cc5cccc6c5C(=O)N(c5ccccc5)C6)CC4)ccc3C2=O)C(=O)N1 (stereo not drawn) [Compound 121] | 30 to 50 | 30 to 150
11 | O=C1CCC(N2Cc3cc(C4CCN(Cc5cccc(N6Cc7ccccc7C6=O)c5)CC4)ccc3C2=O)C(=O)N1 (stereo not drawn) [Compound 51] | 50 to 70 | < 10
12 | Cc1cccc(CN2CCC(O)(c3ccc4c(c3)CN(C3CCC(=O)NC3=O)C4=O)CC2)c1 (stereo not drawn) [Compound 264] | > 70 | < 10
13 | O=C1CCC(N2Cc3cc(C4CCN(Cc5cccc(Nc6ccc(F)cn6)c5)CC4)ccc3C2=O)C(=O)N1 (stereo not drawn) [Compound 132] | 50 to 70 | < 10
14 | N#Cc1ccc(N2Cc3ccc(CN4CCC(c5ccc6c(c5)CN(C5CCC(=O)NC5=O)C6=O)CC4)cc3C2=O)c(F)c1 (stereo not drawn) [Compound 177] | 50 to 70 | < 10
15 | O=C1CCC(N2Cc3cc(C4CCN(Cc5ccnc(Nc6ccccn6)c5)CC4)ccc3C2=O)C(=O)N1 (stereo not drawn) [Compound 115] | 50 to 70 | < 10
16 | COc1ccccc1CN1CCC(O)(c2ccc3c(c2)CN(C2CCC(=O)NC2=O)C3=O)CC1 (stereo not drawn) [Compound 263] | > 70 | < 10
17 | O=C1CCC(N2Cc3cc(C4(O)CCN(Cc5ccccc5OC(F)F)CC4)ccc3C2=O)C(=O)N1 (stereo not drawn) [Compound 248] | > 70 | < 10
18 | O=C1CCC(N2Cc3cc(C4CCN(Cc5ccc(F)c(Nc6ccccc6)n5)CC4)ccc3C2=O)C(=O)N1 (stereo not drawn) [Compound 187] | 50 to 70 | 10 to 30
